Data: ChEMBL document CHEMBL4507263, “Data for DCP probe BAY-474” (2021)

Legend:
[1] = biological target: Calcium/calmodulin-dependent protein kinase type II subunit beta (Homo sapiens) (UniProt Q13554); assay: CaMKIIbeta (h) Millipore kinase activity assay; details: Compound concentration 1.0 uM
[2] = biological target: Death-associated protein kinase 1 (Homo sapiens) (UniProt P53355); assay: DAPK1 (h) Millipore kinase activity assay; details: Compound concentration 1.0 uM
[3] = biological target: Death-associated protein kinase 2 (Homo sapiens) (UniProt Q9UIK4); assay: DAPK2 (h) Millipore kinase activity assay; details: Compound concentration 1.0 uM
[4] = biological target: Ephrin type-A receptor 8 (Homo sapiens) (UniProt P29322); assay: EphA8 (h) Millipore kinase activity assay; details: Compound concentration 1.0 uM
[5] = biological target: Vascular endothelial growth factor receptor 1 (Homo sapiens) (UniProt P17948); assay: Flt1 (h) Millipore kinase activity assay; details: Compound concentration 1.0 uM
[6] = biological target: Dual specificity mitogen-activated protein kinase kinase 6 (Homo sapiens) (UniProt P52564); assay: MKK6 (h) Millipore kinase activity assay; details: Compound concentration 1.0 uM
[7] = biological target: Ribosomal protein S6 kinase beta-1 (Homo sapiens) (UniProt P23443); assay: p70S6K (h) Millipore kinase activity assay; details: Compound concentration 1.0 uM
[8] = biological target: Protein kinase C beta type (Homo sapiens) (UniProt P05771); assay: PKCbetaII (h) Millipore kinase activity assay; details: Compound concentration 1.0 uM
[9] = biological target: Protein kinase C iota type (Homo sapiens) (UniProt P41743); assay: PKCiota (h) Millipore kinase activity assay; details: Compound concentration 1.0 uM
[10] = biological target: Tyrosine-protein kinase SYK (Homo sapiens) (UniProt P43405); assay: Syk (h) Millipore kinase activity assay; details: Compound concentration 1.0 uM
[11] = biological target: T1, Muscarinic acetylcholine receptor M2 (Homo sapiens) (UniProt P08172); details: Compound concentration 10.0 uM
T1 sequence (whole entry): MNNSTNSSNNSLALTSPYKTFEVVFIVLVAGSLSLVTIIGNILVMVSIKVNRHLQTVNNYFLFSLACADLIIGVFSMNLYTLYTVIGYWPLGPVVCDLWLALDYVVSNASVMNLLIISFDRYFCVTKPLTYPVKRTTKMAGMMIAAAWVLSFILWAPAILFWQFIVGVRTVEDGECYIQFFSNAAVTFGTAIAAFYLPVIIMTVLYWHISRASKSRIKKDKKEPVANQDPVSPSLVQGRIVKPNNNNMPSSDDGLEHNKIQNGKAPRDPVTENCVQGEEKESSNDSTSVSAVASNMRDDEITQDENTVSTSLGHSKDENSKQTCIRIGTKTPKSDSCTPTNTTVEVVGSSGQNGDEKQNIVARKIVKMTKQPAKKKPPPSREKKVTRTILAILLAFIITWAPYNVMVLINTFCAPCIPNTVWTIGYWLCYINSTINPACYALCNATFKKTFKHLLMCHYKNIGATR

[12] = biological target: Cytoplasmic tyrosine-protein kinase BMX (Homo sapiens) (UniProt P51813); assay: Bmx (h) Millipore kinase activity assay; details: Compound concentration 1.0 uM
[13] = system: Tyrosine-protein kinase ABL1 (Homo sapiens), P00519 [E255K]; details: Compound concentration 1000.0 nM
[14] = biological target: Tyrosine-protein kinase Blk (Homo sapiens) (UniProt P51451); details: Compound concentration 1000.0 nM
[15] = biological target: Serine/threonine-protein kinase Chk1 (Homo sapiens) (UniProt O14757); details: Compound concentration 1000.0 nM
[16] = biological target: Ephrin type-A receptor 3 (Homo sapiens) (UniProt P29320); details: Compound concentration 1000.0 nM
[17] = biological target: Mitogen-activated protein kinase 6 (Homo sapiens) (UniProt Q16659); details: Compound concentration 1000.0 nM
[18] = biological target: Receptor-type tyrosine-protein kinase FLT3 (Homo sapiens) (UniProt P36888); details: Compound concentration 1000.0 nM
[19] = system: Receptor-type tyrosine-protein kinase FLT3 (Homo sapiens), P36888 [UNDEFINED MUTATION]; details: Compound concentration 1000.0 nM
[20] = biological target: Rhodopsin kinase GRK1 (Homo sapiens) (UniProt Q15835); details: Compound concentration 1000.0 nM
[21] = biological target: Homeodomain-interacting protein kinase 2 (Homo sapiens) (UniProt Q9H2X6); details: Compound concentration 1000.0 nM
[22] = biological target: Tyrosine-protein kinase JAK2 (Homo sapiens) (UniProt O60674); details: Compound concentration 1000.0 nM
[23] = biological target: Dual specificity mitogen-activated protein kinase kinase 4 (Homo sapiens) (UniProt P45985); details: Compound concentration 1000.0 nM
[24] = system: Hepatocyte growth factor receptor (Homo sapiens), P08581 [M1250T]; details: Compound concentration 1000.0 nM
[25] = biological target: Mitogen-activated protein kinase kinase kinase 10 (Homo sapiens) (UniProt Q02779); details: Compound concentration 1000.0 nM
[26] = biological target: Serine/threonine-protein kinase 38 (Homo sapiens) (UniProt Q15208); details: Compound concentration 1000.0 nM
[27] = biological target: 3-phosphoinositide-dependent protein kinase 1 (Homo sapiens) (UniProt O15530); details: Compound concentration 1000.0 nM
[28] = biological target: Membrane-associated tyrosine- and threonine-specific cdc2-inhibitory kinase (Homo sapiens) (UniProt Q99640); details: Compound concentration 1000.0 nM
[29] = biological target: Serine/threonine-protein kinase PknB (Mycobacterium tuberculosis) (UniProt P9WI81); details: Compound concentration 1000.0 nM
[30] = biological target: Dual serine/threonine and tyrosine protein kinase (Homo sapiens) (UniProt Q6XUX3); details: Compound concentration 1000.0 nM
[31] = biological target: Ribosomal protein S6 kinase alpha-1 (Homo sapiens) (UniProt Q15418); details: Compound concentration 1000.0 nM
[32] = biological target: Non-receptor tyrosine-protein kinase TNK1 (Homo sapiens) (UniProt Q13470); details: Compound concentration 1000.0 nM
[33] = biological target: Serine/threonine-protein kinase TNNI3K (Homo sapiens) (UniProt Q59H18); details: Compound concentration 1000.0 nM
[34] = biological target: BDNF/NT-3 growth factors receptor (Homo sapiens) (UniProt Q16620); details: Compound concentration 1000.0 nM
[35] = biological target: Dual specificity protein kinase TTK (Homo sapiens) (UniProt P33981); details: Compound concentration 1000.0 nM
[36] = biological target: Serine/threonine-protein kinase ULK2 (Homo sapiens) (UniProt Q8IYT8); details: Compound concentration 1000.0 nM
[37] = biological target: Wee1-like protein kinase 2 (Homo sapiens) (UniProt P0C1S8); details: Compound concentration 1000.0 nM
[38] = biological target: Serine/threonine-protein kinase WNK4 (Homo sapiens) (UniProt Q96J92); details: Compound concentration 1000.0 nM
[39] = biological target: Serine/threonine-protein kinase 32C (Homo sapiens) (UniProt Q86UX6); details: Compound concentration 1000.0 nM

Chain of Vascular endothelial growth factor receptor 1 (Homo sapiens) (P17948 whole entry): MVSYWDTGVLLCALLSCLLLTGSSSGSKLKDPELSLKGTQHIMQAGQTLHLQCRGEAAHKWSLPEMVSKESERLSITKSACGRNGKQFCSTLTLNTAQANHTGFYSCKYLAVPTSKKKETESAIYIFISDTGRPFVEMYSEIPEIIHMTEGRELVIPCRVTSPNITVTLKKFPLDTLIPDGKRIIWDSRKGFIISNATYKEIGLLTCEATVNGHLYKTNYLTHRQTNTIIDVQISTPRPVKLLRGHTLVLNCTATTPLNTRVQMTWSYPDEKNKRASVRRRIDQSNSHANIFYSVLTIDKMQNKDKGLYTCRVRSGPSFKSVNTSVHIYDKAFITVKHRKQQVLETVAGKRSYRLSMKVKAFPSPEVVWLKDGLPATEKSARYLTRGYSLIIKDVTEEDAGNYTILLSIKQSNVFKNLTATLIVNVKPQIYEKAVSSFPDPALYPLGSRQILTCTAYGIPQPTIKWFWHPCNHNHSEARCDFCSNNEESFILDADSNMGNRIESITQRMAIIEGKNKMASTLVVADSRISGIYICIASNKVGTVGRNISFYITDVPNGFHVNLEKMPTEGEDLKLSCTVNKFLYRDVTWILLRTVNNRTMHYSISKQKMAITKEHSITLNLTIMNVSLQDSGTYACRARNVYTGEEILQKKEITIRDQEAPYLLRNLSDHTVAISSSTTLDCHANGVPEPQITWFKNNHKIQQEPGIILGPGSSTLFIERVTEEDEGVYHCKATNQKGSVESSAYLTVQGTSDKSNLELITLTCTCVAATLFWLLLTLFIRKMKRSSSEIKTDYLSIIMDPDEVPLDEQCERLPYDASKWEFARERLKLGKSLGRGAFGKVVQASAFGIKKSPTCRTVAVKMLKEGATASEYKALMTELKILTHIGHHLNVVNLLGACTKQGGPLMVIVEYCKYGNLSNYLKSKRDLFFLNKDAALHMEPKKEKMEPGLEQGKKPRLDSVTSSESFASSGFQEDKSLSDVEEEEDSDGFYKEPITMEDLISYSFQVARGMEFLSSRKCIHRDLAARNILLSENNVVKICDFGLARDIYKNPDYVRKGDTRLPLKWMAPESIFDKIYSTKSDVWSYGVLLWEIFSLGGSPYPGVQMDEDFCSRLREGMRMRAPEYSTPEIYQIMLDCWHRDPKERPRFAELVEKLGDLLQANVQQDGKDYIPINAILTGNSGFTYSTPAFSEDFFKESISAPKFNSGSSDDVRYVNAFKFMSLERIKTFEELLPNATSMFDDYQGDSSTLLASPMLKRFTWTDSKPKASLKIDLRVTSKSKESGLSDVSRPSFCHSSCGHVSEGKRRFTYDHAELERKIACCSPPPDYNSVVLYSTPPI
Chain of Serine/threonine-protein kinase 38 (Homo sapiens) (Q15208 2-465 limits assumed): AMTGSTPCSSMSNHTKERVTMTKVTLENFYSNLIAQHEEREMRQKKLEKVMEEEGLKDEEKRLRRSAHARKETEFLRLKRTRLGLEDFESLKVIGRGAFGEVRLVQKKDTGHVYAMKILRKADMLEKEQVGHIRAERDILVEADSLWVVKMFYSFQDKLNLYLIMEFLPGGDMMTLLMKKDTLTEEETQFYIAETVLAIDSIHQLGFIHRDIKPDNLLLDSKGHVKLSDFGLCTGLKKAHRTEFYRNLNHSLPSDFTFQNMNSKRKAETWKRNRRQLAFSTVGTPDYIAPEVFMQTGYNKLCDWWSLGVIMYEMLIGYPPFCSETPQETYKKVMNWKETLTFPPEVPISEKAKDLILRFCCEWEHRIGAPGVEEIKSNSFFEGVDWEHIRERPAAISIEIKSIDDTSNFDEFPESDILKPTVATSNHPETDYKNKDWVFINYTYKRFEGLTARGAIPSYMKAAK
Chain of Dual specificity mitogen-activated protein kinase kinase 4 (Homo sapiens) (P45985 whole entry): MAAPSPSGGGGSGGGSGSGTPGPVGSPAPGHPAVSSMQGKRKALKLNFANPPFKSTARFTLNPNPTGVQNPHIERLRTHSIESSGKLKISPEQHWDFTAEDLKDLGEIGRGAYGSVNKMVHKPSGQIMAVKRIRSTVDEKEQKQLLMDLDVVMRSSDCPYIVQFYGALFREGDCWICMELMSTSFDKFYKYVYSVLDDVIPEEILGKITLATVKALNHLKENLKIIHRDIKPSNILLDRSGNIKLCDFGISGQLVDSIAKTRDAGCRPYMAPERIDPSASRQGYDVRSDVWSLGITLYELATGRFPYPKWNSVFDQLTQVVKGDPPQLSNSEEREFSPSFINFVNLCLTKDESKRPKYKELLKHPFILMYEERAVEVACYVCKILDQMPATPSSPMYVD
Chain of Tyrosine-protein kinase Blk (Homo sapiens) (P51451 2-505 limits assumed): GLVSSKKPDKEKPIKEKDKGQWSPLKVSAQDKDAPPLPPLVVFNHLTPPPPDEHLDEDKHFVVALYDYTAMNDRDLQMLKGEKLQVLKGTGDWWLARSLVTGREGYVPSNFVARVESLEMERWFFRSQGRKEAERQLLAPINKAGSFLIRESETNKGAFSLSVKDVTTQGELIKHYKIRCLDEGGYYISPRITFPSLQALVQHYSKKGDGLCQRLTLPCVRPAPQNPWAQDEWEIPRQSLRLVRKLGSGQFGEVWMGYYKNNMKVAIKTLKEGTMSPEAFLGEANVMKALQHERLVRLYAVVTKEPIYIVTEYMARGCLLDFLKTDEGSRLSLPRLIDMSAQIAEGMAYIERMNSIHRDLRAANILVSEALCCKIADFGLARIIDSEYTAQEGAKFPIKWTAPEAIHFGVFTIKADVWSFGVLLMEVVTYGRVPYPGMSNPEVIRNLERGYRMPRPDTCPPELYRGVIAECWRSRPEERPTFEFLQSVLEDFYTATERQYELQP
Chain of Cytoplasmic tyrosine-protein kinase BMX (Homo sapiens) (P51813 whole entry, looked up): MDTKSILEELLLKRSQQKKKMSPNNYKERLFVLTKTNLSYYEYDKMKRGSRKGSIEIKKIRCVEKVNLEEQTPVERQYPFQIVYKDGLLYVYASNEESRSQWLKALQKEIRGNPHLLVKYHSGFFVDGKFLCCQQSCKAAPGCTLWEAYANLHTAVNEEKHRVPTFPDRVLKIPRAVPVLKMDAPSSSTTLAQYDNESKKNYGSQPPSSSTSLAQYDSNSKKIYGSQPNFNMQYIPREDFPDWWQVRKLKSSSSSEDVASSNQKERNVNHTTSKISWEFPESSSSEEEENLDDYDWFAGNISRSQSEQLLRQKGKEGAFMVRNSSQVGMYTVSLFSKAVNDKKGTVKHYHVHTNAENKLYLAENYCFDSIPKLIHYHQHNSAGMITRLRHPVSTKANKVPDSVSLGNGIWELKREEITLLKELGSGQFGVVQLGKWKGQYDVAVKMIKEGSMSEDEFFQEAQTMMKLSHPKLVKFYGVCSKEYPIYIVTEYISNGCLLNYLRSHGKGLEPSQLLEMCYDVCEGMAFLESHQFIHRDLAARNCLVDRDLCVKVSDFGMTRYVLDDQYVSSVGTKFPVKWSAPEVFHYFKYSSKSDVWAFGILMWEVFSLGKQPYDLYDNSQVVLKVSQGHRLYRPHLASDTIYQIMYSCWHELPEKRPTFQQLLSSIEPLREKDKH
Chain of Protein kinase C beta type (Homo sapiens) (P05771 2-671 limits assumed): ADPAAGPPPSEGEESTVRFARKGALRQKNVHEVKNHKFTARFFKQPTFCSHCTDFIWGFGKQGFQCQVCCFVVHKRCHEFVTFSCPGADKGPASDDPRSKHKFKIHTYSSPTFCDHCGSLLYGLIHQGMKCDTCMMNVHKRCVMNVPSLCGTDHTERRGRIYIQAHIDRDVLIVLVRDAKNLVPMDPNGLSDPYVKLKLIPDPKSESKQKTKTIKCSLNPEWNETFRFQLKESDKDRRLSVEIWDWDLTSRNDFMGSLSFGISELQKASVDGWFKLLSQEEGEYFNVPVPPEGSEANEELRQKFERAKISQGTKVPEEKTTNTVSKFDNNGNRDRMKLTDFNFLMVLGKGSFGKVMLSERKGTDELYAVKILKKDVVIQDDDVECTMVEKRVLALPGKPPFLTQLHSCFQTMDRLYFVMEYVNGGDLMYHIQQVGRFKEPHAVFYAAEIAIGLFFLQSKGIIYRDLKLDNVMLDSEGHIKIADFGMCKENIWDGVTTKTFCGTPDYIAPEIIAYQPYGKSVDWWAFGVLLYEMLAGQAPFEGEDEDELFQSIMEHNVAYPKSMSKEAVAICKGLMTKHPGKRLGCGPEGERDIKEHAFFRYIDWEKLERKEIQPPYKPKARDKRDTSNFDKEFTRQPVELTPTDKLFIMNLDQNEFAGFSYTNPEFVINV
Chain of Mitogen-activated protein kinase 6 (Homo sapiens) (Q16659 whole entry): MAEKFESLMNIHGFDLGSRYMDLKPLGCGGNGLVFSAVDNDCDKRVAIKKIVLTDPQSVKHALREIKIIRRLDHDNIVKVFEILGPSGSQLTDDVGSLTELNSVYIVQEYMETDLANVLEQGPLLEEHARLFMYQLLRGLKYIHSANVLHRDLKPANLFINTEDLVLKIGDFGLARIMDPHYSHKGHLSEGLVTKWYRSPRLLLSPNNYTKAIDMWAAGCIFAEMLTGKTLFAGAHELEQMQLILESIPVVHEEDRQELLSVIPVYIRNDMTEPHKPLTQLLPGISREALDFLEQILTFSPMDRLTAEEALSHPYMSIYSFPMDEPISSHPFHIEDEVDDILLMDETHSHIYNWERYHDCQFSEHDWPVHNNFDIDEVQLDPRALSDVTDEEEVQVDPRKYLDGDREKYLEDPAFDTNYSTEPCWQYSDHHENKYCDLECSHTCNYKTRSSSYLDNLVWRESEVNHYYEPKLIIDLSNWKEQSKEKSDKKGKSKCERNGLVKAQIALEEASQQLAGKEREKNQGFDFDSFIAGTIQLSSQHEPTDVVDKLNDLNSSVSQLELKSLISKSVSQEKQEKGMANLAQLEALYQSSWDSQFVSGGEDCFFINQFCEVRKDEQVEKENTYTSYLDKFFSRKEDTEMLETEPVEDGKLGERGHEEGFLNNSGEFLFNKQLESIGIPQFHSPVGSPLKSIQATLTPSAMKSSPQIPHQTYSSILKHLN

CC1=C(C#N)C(c2ccc3[nH]nc(C)c3c2)C(C#N)=C(C)N1 [BAY-474]
inhibition [1]: 4%
inhibition [2]: 0%
inhibition [3]: -4%
inhibition [4]: -1%
inhibition [5]: 69%
inhibition [6]: 5%
inhibition [7]: -3%
inhibition [8]: 7%
inhibition [9]: -7%
inhibition [10]: 8%
inhibition [11]: 0%
inhibition [12]: -7%

CC1=C(C#N)[C@@H](c2ccc3[nH]nc(C)c3c2)C(C#N)=C(c2ccc(Cl)cc2)N1 [BAY-827]
residual activity [13]: 83.5%
residual activity [14]: 100%
residual activity [15]: 100%
residual activity [16]: 100%
residual activity [17]: 100%
residual activity [18]: 100%
residual activity [19]: 100%
residual activity [20]: 65.5%
residual activity [21]: 86.1%
residual activity [22]: 100%
residual activity [23]: 71.5%
residual activity [24]: 25.1%
residual activity [25]: 100%
residual activity [26]: 92.3%
residual activity [27]: 98.2%
residual activity [28]: 100%
residual activity [29]: 100%
residual activity [30]: 100%
residual activity [31]: 100%
residual activity [32]: 65%
residual activity [33]: 94.3%
residual activity [34]: 85.2%
residual activity [35]: 75.7%
residual activity [36]: 100%
residual activity [37]: 100%
residual activity [38]: 100%
residual activity [39]: 91.2%
